Measurements reported in ChEMBL document CHEMBL4334548, “Discovery of Isoxazole Amides as Potent and Selective SMYD3 Inhibitors” (ACS Med Chem Lett, 2020).
Converted amounts (≈) assume the structure as drawn.

Key:
[1] = Permeability of compound; type: ADME; conditions: not told; read-out: permeability
[2] = Solubility of compound by CLND method; type: physicochemical
[3] = Oral bioavailability in Sprague-Dawley rat at 2 mg/kg; type: ADME, organism-based; conditions: in vivo; for bioavailability: Sprague-Dawley
[4] = Volume of distribution in Sprague-Dawley rat at 1 mg/kg, iv or 2 mg/kg, po; type: ADME, organism-based; conditions: in vivo
[5] = Clearance in Sprague-Dawley rat at 1 mg/kg, iv or 2 mg/kg, po; type: ADME, organism-based; conditions: in vivo
[6] = Half life in Sprague-Dawley rat at 1 mg/kg, iv or 2 mg/kg, po; type: ADME, organism-based; conditions: in vivo
[7] = AUC in Sprague-Dawley rat at 2 mg/kg, po; type: ADME, organism-based; conditions: in vivo
[8] = Half life in Sprague-Dawley rat at 0.5 mg/kg, iv or 2 mg/kg, po; type: ADME, organism-based; conditions: in vivo
[9] = Volume of distribution in Sprague-Dawley rat at 0.5 mg/kg, iv or 2 mg/kg, po; type: ADME, organism-based; conditions: in vivo
[10] = Clearance in Sprague-Dawley rat at 0.5 mg/kg, iv or 2 mg/kg, po; type: ADME, organism-based; conditions: in vivo
[11] = Oral bioavailability in Sprague-Dawley rat at 5 mg/kg; type: ADME, organism-based; conditions: in vivo
[12] = Volume of distribution in Sprague-Dawley rat at 1 mg/kg, iv or 5 mg/kg, po; type: ADME, organism-based; conditions: in vivo
[13] = Half life in Sprague-Dawley rat at 1 mg/kg, iv or 5 mg/kg, po; type: ADME, organism-based; conditions: in vivo
[14] = AUC in Sprague-Dawley rat at 5 mg/kg, po; type: ADME, organism-based; conditions: in vivo

SMILES | Papp [1] | solubility kinetic [2] | other results
O=C(NC1CCN(S(=O)(=O)c2ccc(CN3CCC3)cc2)CC1)c1cc(C2CC2)on1 | 16 ×10⁻⁶ cm/s | 302 µM (≈ 134 µg/mL) | –
O=C(NC1CCN(S(=O)(=O)C[C@H]2CC[C@H](NCc3cncc(F)c3)CC2)CC1)c1cc(C2CC2)on1 | 11 ×10⁻⁶ cm/s | 12 µM (≈ 6.24 µg/mL) | –
O=C(NC1CCN(S(=O)(=O)C[C@H]2CC[C@H](NCc3ccc(F)cn3)CC2)CC1)c1cc(C2CC2)on1 | 19 ×10⁻⁶ cm/s | 141 µM (≈ 73.3 µg/mL) | bioavailability [3]: 59%; Vd [4]: 12 L/kg; clearance [5]: 17 mL/min/kg; half-life [6]: 10.8 h; AUC ([7]; Sprague-Dawley, read-out: AUC): 578 ng·h/mL
O=C(NC1CCN(S(=O)(=O)C[C@H]2CC[C@H](NCc3ccccc3)CC2)CC1)c1cc(C2CC2)on1 | – | 1 µM (≈ 0.501 µg/mL) | bioavailability [3]: 79%; half-life [8]: 3.6 h; Vd [9]: 16.1 L/kg; clearance [10]: 90 mL/min/kg; AUC ([7]; Sprague-Dawley, read-out: AUC): 149 ng·h/mL
CCN1CCC(S(=O)(=O)N2CCC(NC(=O)c3cc(C4CC4)on3)CC2)CC1 | 5.2 ×10⁻⁶ cm/s | 502 µM (≈ 206 µg/mL) | –
O=C(NC1CCN(S(=O)(=O)[C@H]2CC[C@H](NCCCC(F)(F)F)CC2)CC1)c1cc(C2CC2)on1 | – | – | bioavailability [3]: 86%; Vd [4]: 12.5 L/kg; clearance [5]: 20 mL/min/kg; half-life [6]: 8.6 h; AUC ([7]; Sprague-Dawley, read-out: AUC): 967 ng·h/mL
O=C(NC1CCN(S(=O)(=O)C[C@H]2CC[C@H](NCc3cccc(F)c3)CC2)CC1)c1cc(C2CC2)on1 | 20 ×10⁻⁶ cm/s | 277 µM (≈ 144 µg/mL) | –
O=C(NC1CCN(S(=O)(=O)c2ccc(CN3CCCC3)cc2)CC1)c1cc(C2CC2)on1 | 13 ×10⁻⁶ cm/s | 122 µM (≈ 55.9 µg/mL) | half-life [8]: 1.7 h; Vd [9]: 6.7 L/kg; clearance [10]: 68 mL/min/kg; AUC ([7]; Sprague-Dawley, read-out: AUC): 295 ng·h/mL
CCCCN[C@H]1CC[C@H](CS(=O)(=O)N2CCC(NC(=O)c3cc(C4CC4)on3)CC2)CC1 | 6.8 ×10⁻⁶ cm/s | 234 µM (≈ 109 µg/mL) | –
Cc1cccc(CN[C@H]2CC[C@H](CS(=O)(=O)N3CCC(NC(=O)c4cc(C5CC5)on4)CC3)CC2)c1 | 17 ×10⁻⁶ cm/s | 21 µM (≈ 10.8 µg/mL) | –
CC(C)(C)CN[C@H]1CC[C@H](CS(=O)(=O)N2CCC(NC(=O)c3cc(C4CC4)on3)CC2)CC1 | 14 ×10⁻⁶ cm/s | 367 µM (≈ 176 µg/mL) | –
O=C(NC1CCN(S(=O)(=O)C[C@H]2CC[C@H](NCc3ccc(Cl)cc3)CC2)CC1)c1cc(C2CC2)on1 | 44 ×10⁻⁶ cm/s | 6 µM (≈ 3.21 µg/mL) | bioavailability [3]: 70%; Vd [4]: 14.7 L/kg; clearance [5]: 36 mL/min/kg; half-life [6]: 7.3 h; AUC ([7]; Sprague-Dawley, read-out: AUC): 365 ng·h/mL
O=C(NC1CCN(S(=O)(=O)C[C@H]2CC[C@H](NCc3cccc(Cl)c3)CC2)CC1)c1cc(C2CC2)on1 | 18 ×10⁻⁶ cm/s | 4 µM (≈ 2.14 µg/mL) | –
O=C(NC1CCN(S(=O)(=O)C[C@H]2CC[C@H](NCc3ccc(Cl)cn3)CC2)CC1)c1cc(C2CC2)on1 | 22 ×10⁻⁶ cm/s | 14 µM (≈ 7.51 µg/mL) | –
O=C(NC1CCN(S(=O)(=O)C[C@H]2CC[C@H](NCc3ccc(F)cc3)CC2)CC1)c1cc(C2CC2)on1 | – | 3 µM (≈ 1.56 µg/mL) | –
O=C(NC1CCN(S(=O)(=O)C[C@H]2CC[C@H](NCc3ccccc3Cl)CC2)CC1)c1cc(C2CC2)on1 | 20 ×10⁻⁶ cm/s | 6 µM (≈ 3.21 µg/mL) | –
NCCCCS(=O)(=O)N1CCC(NC(=O)c2cc(C3CC3)on2)CC1 | < 1 ×10⁻⁶ cm/s | 385 µM (≈ 143 µg/mL) | –
O=C(NC1CCN(S(=O)(=O)C[C@H]2CC[C@H](NCc3ccncc3)CC2)CC1)c1cc(C2CC2)on1 | 4.5 ×10⁻⁶ cm/s | 26 µM (≈ 13 µg/mL) | –
O=C(NC1CCN(S(=O)(=O)C[C@H]2CC[C@H](NCc3cc(F)ccn3)CC2)CC1)c1cc(C2CC2)on1 | 6.6 ×10⁻⁶ cm/s | – | –
Cc1ccccc1CN[C@H]1CC[C@H](CS(=O)(=O)N2CCC(NC(=O)c3cc(C4CC4)on3)CC2)CC1 | – | 15 µM (≈ 7.72 µg/mL) | –
CCN[C@H]1CC[C@H](CS(=O)(=O)N2CCC(NC(=O)c3cc(C4CC4)on3)CC2)CC1 | < 0.3 ×10⁻⁶ cm/s | 295 µM (≈ 129 µg/mL) | –
O=C(NC1CCN(S(=O)(=O)C2CCNC2)CC1)c1cc(C2CC2)on1 (stereo unspecified) | 2.4 ×10⁻⁶ cm/s | 406 µM (≈ 150 µg/mL) | –
O=C(NC1CCN(S(=O)(=O)C[C@H]2CC[C@H](NCc3cccnc3)CC2)CC1)c1cc(C2CC2)on1 | 5.5 ×10⁻⁶ cm/s | 194 µM (≈ 97.3 µg/mL) | –
CN1CCC(S(=O)(=O)N2CCC(NC(=O)c3cc(C4CC4)on3)CC2)CC1 | 5.6 ×10⁻⁶ cm/s | 474 µM (≈ 188 µg/mL) | –
CC(C)CN[C@H]1CC[C@H](CS(=O)(=O)N2CCC(NC(=O)c3cc(C4CC4)on3)CC2)CC1 | 6.1 ×10⁻⁶ cm/s | 434 µM (≈ 203 µg/mL) | –
CCS(=O)(=O)N1CCC(NC(=O)c2cc(C3CC3)on2)CC1 | 24 ×10⁻⁶ cm/s | 306 µM (≈ 100 µg/mL) | –
O=C(NC1CCN(S(=O)(=O)C[C@H]2CC[C@H](NCc3ccccc3F)CC2)CC1)c1cc(C2CC2)on1 | 32 ×10⁻⁶ cm/s | 297 µM (≈ 154 µg/mL) | F [3]: 65%; Vd [4]: 9.4 L/kg; half-life [6]: 1.7 h; AUC [7]: 87 ng·h/mL

The next lines start with results.

Papp [1] | solubility kinetic [2] | SMILES | other results
16 ×10⁻⁶ cm/s | 48 µM (≈ 24.3 µg/mL) | O=C(NC1CCN(S(=O)(=O)C[C@H]2CC[C@H](NCCC(F)(F)F)CC2)CC1)c1cc(C2CC2)on1 | –
< 1 ×10⁻⁶ cm/s | 479 µM (≈ 197 µg/mL) | NC[C@H]1CC[C@H](S(=O)(=O)N2CCC(NC(=O)c3cc(C4CC4)on3)CC2)CC1 | –
8.9 ×10⁻⁶ cm/s | 61 µM (≈ 31.5 µg/mL) | Cc1ccc(CN[C@H]2CC[C@H](CS(=O)(=O)N3CCC(NC(=O)c4cc(C5CC5)on4)CC3)CC2)nc1 | –
< 1 ×10⁻⁶ cm/s | 126 µM (≈ 55.3 µg/mL) | CN(C)[C@H]1CC[C@H](CS(=O)(=O)N2CCC(NC(=O)c3cc(C4CC4)on3)CC2)CC1 | –
14 ×10⁻⁶ cm/s | 9 µM (≈ 4.69 µg/mL) | O=C(NC1CCN(S(=O)(=O)C[C@H]2CC[C@H](NCCCC(F)(F)F)CC2)CC1)c1cc(C2CC2)on1 | bioavailability [3]: 79%; half-life [8]: 12.8 h; Vd [9]: 18.9 L/kg; clearance [10]: 20 mL/min/kg; AUC ([7]; Sprague-Dawley, read-out: AUC): 676 ng·h/mL
< 1 ×10⁻⁶ cm/s | 329 µM (≈ 130 µg/mL) | N[C@H]1CC[C@H](S(=O)(=O)N2CCC(NC(=O)c3cc(C4CC4)on3)CC2)CC1 | –
< 1 ×10⁻⁶ cm/s | 297 µM (≈ 122 µg/mL) | N[C@H]1CC[C@H](CS(=O)(=O)N2CCC(NC(=O)c3cc(C4CC4)on3)CC2)CC1 | –
12 ×10⁻⁶ cm/s | 55 µM (≈ 17.2 µg/mL) | CS(=O)(=O)N1CCC(NC(=O)c2cc(C3CC3)on2)CC1 | F [11]: 79%; Vd [12]: 1.2 L/kg; half-life [13]: 2.5 h; AUC [14]: 2142 ng·h/mL
3.5 ×10⁻⁶ cm/s | 143 µM (≈ 64.7 µg/mL) | CCCN[C@H]1CC[C@H](CS(=O)(=O)N2CCC(NC(=O)c3cc(C4CC4)on3)CC2)CC1 | –
< 1 ×10⁻⁶ cm/s | 375 µM (≈ 128 µg/mL) | NCCS(=O)(=O)N1CCC(NC(=O)c2cc(C3CC3)on2)CC1 | –
41 ×10⁻⁶ cm/s | 53 µM (≈ 29.1 µg/mL) | CCN(CCCC(F)(F)F)[C@H]1CC[C@H](CS(=O)(=O)N2CCC(NC(=O)c3cc(C4CC4)on3)CC2)CC1 | –
18 ×10⁻⁶ cm/s | 10 µM (≈ 4.95 µg/mL) | CC(C)(C)CCN[C@H]1CC[C@H](CS(=O)(=O)N2CCC(NC(=O)c3cc(C4CC4)on3)CC2)CC1 | –
5.2 ×10⁻⁶ cm/s | 295 µM (≈ 119 µg/mL) | NCc1ccc(S(=O)(=O)N2CCC(NC(=O)c3cc(C4CC4)on3)CC2)cc1 | half-life [8]: 0.2 h; Vd [9]: 2.3 L/kg; clearance [10]: 311 mL/min/kg
20 ×10⁻⁶ cm/s | 130 µM (≈ 56.2 µg/mL) | CN(C)Cc1ccc(S(=O)(=O)N2CCC(NC(=O)c3cc(C4CC4)on3)CC2)cc1 | –
– | 14 µM (≈ 7.49 µg/mL) | CN(CCCC(F)(F)F)[C@H]1CC[C@H](CS(=O)(=O)N2CCC(NC(=O)c3cc(C4CC4)on3)CC2)CC1 | –
14 ×10⁻⁶ cm/s | 10 µM (≈ 5.15 µg/mL) | Cc1ccc(CN[C@H]2CC[C@H](CS(=O)(=O)N3CCC(NC(=O)c4cc(C5CC5)on4)CC3)CC2)cc1 | –
0.69 ×10⁻⁶ cm/s | 515 µM (≈ 197 µg/mL) | O=C(NC1CCN(S(=O)(=O)C2CCNCC2)CC1)c1cc(C2CC2)on1 | bioavailability [3]: 27%; half-life [8]: 2.7 h; Vd [9]: 4.5 L/kg; clearance [10]: 37 mL/min/kg; AUC ([7]; Sprague-Dawley, read-out: AUC): 123 ng·h/mL
6.4 ×10⁻⁶ cm/s | 52 µM (≈ 26.1 µg/mL) | O=C(NC1CCN(S(=O)(=O)C[C@H]2CC[C@H](NCc3ccccn3)CC2)CC1)c1cc(C2CC2)on1 | –
< 1 ×10⁻⁶ cm/s | 420 µM (≈ 167 µg/mL) | N[C@H]1CC[C@@H](S(=O)(=O)N2CCC(NC(=O)c3cc(C4CC4)on3)CC2)CC1 | –
7.9 ×10⁻⁶ cm/s | 26 µM (≈ 12.3 µg/mL) | O=C(NC1CCN(S(=O)(=O)c2ccc(CN3CCCCC3)cc2)CC1)c1cc(C2CC2)on1 | –
< 1 ×10⁻⁶ cm/s | 297 µM (≈ 126 µg/mL) | CN[C@H]1CC[C@H](CS(=O)(=O)N2CCC(NC(=O)c3cc(C4CC4)on3)CC2)CC1 | –
5 ×10⁻⁶ cm/s | 410 µM (≈ 168 µg/mL) | O=C(NC1CCN(S(=O)(=O)CCCN2CCCC2)CC1)c1cc(C2CC2)on1 | –
